Test results reported in US20240252454A1, “COMPOSITION COMPRISING AN INHIBITOR OF MITOCHONDRIAL TRANSCRIPTION” (LEAD DISCOVERY CENTER GMBH, priority 2021, published 2024).

Test system: MDAMB231
Experiment: SRB assay, IMT combined with inhibitor
Format: cell-based
Conditions: MDAMB231 (breast); concentration series of the labelled inhibitor + fixed concentration of IMT (3S)-1-[(2R)-2-[4-(2-chloro-4-fluoro-phenyl)-2-oxo-chromen-7-yl]oxypropanoyl]piperidine-3-carboxylic acid; negative=synergistic, positive=antagonistic
Description: Solforhodamine B assay is carried out as described in Voigt W. (2005) Sulforhodamine B Assay and Chemosensitivity. (Methods in Molecular Medicine™, vol 110. Humana Press. https://doi.org/10.1385/1-59259-869-2:039).
The determination of changes in cellular biomass was based on the Solforhodamine B assay format, carried out as described in Voigt W. (2005) Sulforhodamine B Assay and Chemosensitivity. (Methods in Molecular Medicine™, vol 110. Humana Press. https://doi.org/10.1385/1-59259-869-2:039).
All in vitro cell culture experiments were carried out under near physiological glucose concentrations (5 mM) in at least two independent replicates.
To establish the method described, combinations of (3S)-1-[(2R)-2-[4-(2-chloro-4-fluoro-phenyl)-2-oxo-chromen-7-yl]oxypropanoyl]piperidine-3-carboxylic acid and various PARPi were tested with regard to their effect on the cell growth of 33 tumour cell lines from different tissues, in the SRB and CTG assay format. The assay methods and protocols in cell culture and measurement followed the procedure as described in Example 1). […] This initial study was followed by validation experiments in a matrix format and in the CTG assay, as described for Example 1) (Table 6.)

In the case of `O=C(c1cc(Cc2n[nH]c(=O)c3ccccc23)ccc1F)N1CCN(C(=O)C2CC2)CC1` [Olaparib], the “difference between the calculated combinatorial index (BLISS) and the observed combinatorial effect” value is reported as −0.0488.
